Results published in patent US10472394B2, “Cyclosporine analogue mixtures and their use as immunomodulating agents” (Aurinia Pharmaceuticals Inc., priority 2001, dated 2019).
Values after ≈ are worked out from the molar mass of the structure shown.

Assays:
[1] = system: collagen-induced arthritis; test: collagen-induced arthritis model; assay type: in vivo, mouse
Method: Male DBA/1 Lac J mice, kept under virus antibody free conditions, were immunized subcutaneously at 8 to 10 weeks of age with 100 microgram of chick type II collagen, emulsified in Freund's complete adjuvant. […] Animals assigned to the treatment protocol (12/group) were dosed starting on the day of disease onset (˜Day 28) until sacrifice on Day 38.
Evaluated parameters included mortality, serum creatinine, histology, and outcome assessments, such as clinical scoring (visual), hind paw swelling, histological scoring, erosion scoring, and immunohistochemistry.
Erosion scoring was done in a blinded manner by examining sagittal sections of the proximal interphalangeal (PIP) joint of the middle digit for the presence or absence of erosions (defined as demarcated defects in cartilage or bone filled with inflammatory tissue). This approach allowed for comparisons of the same joint.

[2] = system: Transplanted Rat Hearts; test: rat heart transplant model (heterotopic, Wistar Furth to Lewis); assay type: in vivo
Excerpt: If graft dysfunction was noted during the 30-day post-transplantation period, the animal was sacrificed. If the animal survived longer than 30 days post-transplantation, the test and control articles were discontinued and the animal was allowed to continue until graft dysfunction or up to 100 days post-transplantation.

[3] = system: lymphocyte proliferation; test: whole blood assay: lymphocyte proliferation; assay type: cell-based, cynomolgous monkeys; conditions: mitogen stimulated
Method: (§1) Lymphocyte proliferation was assessed by tritium-labeled thymidine incorporation and by flow-cytometric analysis of expression of proliferating cell nuclear antigen (PCNA) on cells in SG2M phase. Flow cytometry was also used to assess production of intracellular cytokines by T cells and expression of T lymphocyte activation antigens.

[4] = system: bacterial reverse mutation; test: in vitro bacterial reverse mutation assay; assay type: cell-based
Excerpt: (§2) No carcinogenicity studies have been completed to date.

[5] = system: antigen-induced arthritis; test: antigen-induced arthritis model; assay type: in vivo, rabbit
Method: New Zealand White rabbits, maintained under specific pathogen free conditions, were immunized with 10 mg of ovalbumin in saline emulsified with Freund's complete adjuvant that was given intramuscularly and subcutaneously into several sites in the nape of the neck. Fourteen days later, all animals started receiving 2 daily intra-articular injections of 5 mg ovalbumin and 65 ng of human recombinant transforming growth factor 2 in saline.
Animals assigned to the treatment protocol (8/group) were dosed starting on the day of disease onset (˜Day 28) until sacrifice on Day 42.
Evaluated parameters included mortality, body weight, serum creatinine, histology, and outcome assessments such as knee joint swelling, synovial fluid counts, gross postmortem analysis, and histology.

[6] = system: T lymphocyte activation antigens; test: whole blood assay: expression of T lymphocyte activation antigens; assay type: cell-based, cynomolgous monkeys; conditions: mitogen stimulated
Method: as §1

[7] = system: Mouse Islet Allografts; test: islet cell allotransplantation in diabetic mice
Excerpt: Blood glucose was monitored daily until the time of graft failure, as defined by a glucose level greater than 17 mmol/L on two consecutive days.

[8] = 30-day toxicokinetic/toxicity study in the rabbit model
Method: (§3) On Days 1 and 7, blood samples were collected prior to drug administration and at 0.5, 1, 2, 4, 8, 12, 18, and 24 hours post-dose to generate a pharmacokinetic profile. Other evaluated parameters included clinical observations, body weight, food consumption, hematology, clinical chemistry, gross pathology, and histopathological examination of selected tissues/organs.

[9] = system: micronucleus; test: in vivo rat micronucleus assay
Excerpt: as §2

[10] = repeated-dose oral toxicity studies; assay type: in vivo, rats, dogs, and primates
[11] = reproductive toxicity studies; assay type: in vivo, pregnant rats and rabbits
Excerpt: as §2

[12] = system: production of intracellular cytokines by T cells; test: whole blood assay: intracellular cytokine production by T cells; assay type: cell-based, cynomolgous monkeys; conditions: mitogen stimulated
Method: as §1

[13] = system: calcineurin phosphatase activity; test: calcineurin (CN) inhibition assay; assay type: biochemical; conditions: FIG. 11; ISATX247 isomer mixture
Excerpt: The use of cyclosporine derivatives, a class of cyclic polypeptides produced by the fungus Tolypocladium inflatum Gams, is increasing in immunosuppressive therapy due to their preferential effects on T-cell mediated reactions. […] This action is primarily mediated through cyclosporine A-induced inhibition of calcineurin, a phosphatase enzyme found in the cytoplasm of cells (Schreiber and Crabtree, 1992).

[14] = system: chromosome aberration; test: in vitro chromosome aberration assay; assay type: cell-based
Excerpt: as §2

[15] = pharmacokinetics in the rabbit model (i.v.); assay type: in vivo; conditions: for Area under the curve, mean ± SD / Cmax, mean ± SD: 10 mg/kg/day i.v.
Method: as §3
Blood samples were analyzed via high performance liquid chromatography coupled with mass spectrometry (LCMS).

SMILES: C=C/C=C/C[C@@H](C)[C@@H](O)[C@H]1C(=O)N[C@@H](CC)C(=O)N(C)CC(=O)N(C)[C@@H](CC(C)C)C(=O)N[C@@H](C(C)C)C(=O)N(C)[C@@H](CC(C)C)C(=O)N[C@@H](C)C(=O)N[C@H](C)C(=O)N(C)[C@@H](CC(C)C)C(=O)N(C)[C@@H](CC(C)C)C(=O)N(C)[C@@H](C(C)C)C(=O)N1C [ISATX247]
- negative erosion scores compared to vehicle group ([1]; 250 μg/mouse i.p.): higher negative erosion scores
- development of joint erosions (PIP joints) ([1]; 500 μg/mouse): significantly prevent
- negative erosion scores compared to vehicle group ([1]; 500 μg/mouse i.p.): significantly higher
- increase of survival time over Cyclosporine A ([2]; 1.75 mg/kg/day): approximately 3 fold
- graft function after discontinuation of dosing ([2]; 100 days post-transplant (70 days post discontinuation of dosing)): still had functioning grafts at 100 days post-transplant
- EC50, 3H-thymidine uptake [3]: 0.16054 µg/mL (≈ 0.132 µM)
- EC50, PCNA expression ([3]; flow cytometry): 0.19772 µg/mL (≈ 0.163 µM)
- mutagenic activity [4]: does not exhibit mutagenic activity
- synovial fluid counts ([5]; prevention protocol): significant reductions
- synovial histopathological scores compared to vehicle control ([5]; prevention protocol, after 28 days of therapy, s.c.): significant decrease
- macroscopic arthritis score ([5]; rabbit, in vivo): significant reduction
- potency compared with cyclosporine A in treatment and prevention of arthritis ([5]; rabbit, in vivo): equivalent or potentially more potent than cyclosporine A
- synovial histopathological scores of animals with established arthritis compared to vehicle controls ([5]; treatment protocol, 14 days of treatment): Significant amelioration
- EC50, CD 11a expression [6]: 0.2044 µg/mL (≈ 0.168 µM)
- EC50, CD 25 expression [6]: 0.121 µg/mL (≈ 0.0996 µM)
- EC50, CD 71 expression [6]: 0.14984 µg/mL (≈ 0.123 µM)
- EC50, CD 95 expression [6]: 0.12998 µg/mL (≈ 0.107 µM)
- EC50, CD 154 expression [6]: 0.16087 µg/mL (≈ 0.132 µM)
- Mean Survival ([7]; 1.75 mg/kg/day i.p.): 18.7
- Mean Survival ([7]; 10 mg/kg/day i.p.): 19.2
- Mean Survival ([7]; 25 mg/kg/day i.p.): 46.4
- toxicity compared with cyclosporine A as the dose level increased ([7]; especially apparent at 25 mg/kg/day): less toxic than cyclosporine A
- examination of organs ([8]; 5 mg/kg): no significant abnormalities
- examination of organs ([8]; 10 mg/kg): no significant abnormalities
- increase in serum creatinine levels ([8]; 15 mg/kg/day): did not result in any significant increase
- examination of organs ([8]; 3 female rabbits that completed the study, 15 mg/kg): No changes
- Percent Change in Serum Creatine Levels Over Baseline ([8]; male rabbits, 10 mg/kg, Day 15): +1%
- Percent Change in Serum Creatine Levels Over Baseline ([8]; male rabbits, 10 mg/kg, Day 30): +10%
- examination of organs: spermatogenesis ([8]; male rabbits, 15 mg/kg): a decrease in spermatogenesis
- Percent Change in Serum Creatine Levels Over Baseline ([8]; male rabbits, 15 mg/kg, Day 15): −19%
- Percent Change in Serum Creatine Levels Over Baseline ([8]; male rabbits, 15 mg/kg, Day 30): −11%
- hematological parameters ([8]; rabbit, in vivo): No significant changes
- mutagenic activity [9]: does not exhibit mutagenic activity
- only toxicological effect noted in all species [10]: diarrhea/loose feces
- tolerability ([10]; rats, dogs, primates): well-tolerated
- embryotoxicity ([11]; at doses that resulted in maternal toxicity): corresponding embryotoxicity was observed
- treatment-related malformations or alterations ([11]; pregnant rats and rabbits): no treatment-related malformations or alterations
- EC50, IFN-production [12]: 0.10267 µg/mL (≈ 0.0845 µM)
- EC50, IL-2 production [12]: 0.10335 µg/mL (≈ 0.0851 µM)
- EC50, TNF-production [12]: 0.09058 µg/mL (≈ 0.0746 µM)
- potency of inhibition of calcineurin phosphatase activity compared to cyclosporine A (as determined by IC50) [13]: ≤ 3 fold
- mutagenic activity [14]: does not exhibit mutagenic activity
- pharmacokinetic parameters in female rabbits compared with male rabbits ([15]; 10 mg/kg/day, exception: maximum concentration on Day 7): not significantly different
- pharmacokinetic parameters compared with cyclosporine A ([15]; male rabbits, 10 mg/kg/day): no statistically significantly differences
- Area under the curve, mean ± SD ([15]; male rabbits, Day 1): 5659 ± 1309 ng·h/mL
- Cmax, mean ± SD ([15]; male rabbits, Day 1): 1915 ± 149 ng/mL
- Area under the curve, mean ± SD ([15]; male rabbits, Day 7): 5697 ± 1373 ng·h/mL
- Cmax, mean ± SD ([15]; male rabbits, Day 7): 1959 ± 470 ng/mL
